In one series the test system is MDA-MB231. Briefly: SRB cytotoxicity assay. In kind it is cell-based. Conditions: Homo sapiens, MDA-MB-231, 72 h treatment. The procedure:
(§1) HepG2, FOCUS, Hep3B, Mahlavu, Huh7, Hep40, and PLC-PRF-5 hepatocellular carcinoma cells; MCF-7, MDA-MB-231, MDA-MB-468, SKBR3, and ZR-75 breast cancer cells; and normal-like epithelial MCF-10A breast cells were cultured in low-glucose Dulbecco’s modified Eagle’s medium (DMEM) (Biological Industries-BI) supplemented with 10% fetal bovine serum (FBS) (Gibco/Thermo Fisher Scientific), 2 mM L-Glutamine (Gibco/Thermo Fisher Scientific), 100 Units/mL Penicillin/Streptomycin, and 0.1 mM non-essential amino acid (Gibco/Thermo Fisher Scientific). SNU475 hepatocellular carcinoma cells were maintained in RPMI (Biological Industries-BI) supplemented with 10% fetal bovine serum (FBS) (Gibco/Thermo Fisher Scientific), L-Glutamine (Gibco/Thermo Fisher Scientific), and 100 Units/mL Penicillin/Streptomycin, while ZR-75 breast cancer cells were cultured RPMI (Biological Industries-BI) supplemented with 10% fetal bovine serum (FBS) (Gibco/Thermo Fisher Scientific), 1× sodium pyruvate, and %4.5 glucose. Normal-like MCF-10A breast cells were sustained in DMEM/HAM’S F12 (Hyclone) supplemented with 10% fetal bovine serum (FBS) (Gibco/Thermo Fisher Scientific), EGF (20 ng/mL), Hydrocortisone ([…]), cholera toxin (100 ng/mL), insulin (10 μg/mL), and 100 Units/mL Penicillin/Streptomycin. The cells were cultivated at 37 °C in a humidified incubator under 5% CO2.
(§2) Mahlavu, FOCUS, SNU475 (1000 cell/well in 150 μL/well); Huh7, MCF7 (2500 cell/well in 150 μL/well); HepG2, Hep3B, SKBR3 (3000 cell/well in 150 μL/well); PLC-PRF-5, Hep40 (5000 cell/well in 150 μL/well); MDA-MB-231, MDA-MB-468, MCF10A (6000 cell/well in 150 μL/well); and ZR-75 (7500 cell/well in 150 μL/well) were cultured in 96-well plates and were inoculated in an incubator for 24 hours. The compounds were dissolved in dimethyl sulfoxide (DMSO) (Sigma, St Louis, MO) as a 20 mM stock solution. The treatment of cells with the compounds was done in a concentration range starting from 40 to 2.5 μM. The compounds which were below 2.5 μM were tested in a concentration range from 2.5 to 0.15 μM. End of the 72h compound treatment, the cells were fixed using 10% (v/v) trichloroacetic acid (MERCK) for an hour and washed with ddH2O, and left for air-drying. The fixed plates were stained with 50 μL of sulforhodamine B (SRB) solution (Sigma) at RT for 10 min. To remove unbound SRB dye, acetic acid was used to wash cells three times and left for drying. The protein-bound SRB was solubilized with 10 mM Tris-base (Sigma) and their absorbance was measured with a 96-well plate reader at 515 nm wavelength (ELx800, Biotek). The IC50 values of compounds were calculated in comparison with control group DMSO. Data with R^2 values larger than 0.9 are considered significant.

For the next series, the system named is SNU475. Nature of the series: SRB cytotoxicity assay. In kind it is cell-based. The note with it: Homo sapiens, SNU-475, 72 h treatment. The protocol: as §1, §2
A general note: The SRB assay estimates cell density from bound dye.

The test system of the next series is ZR75. Briefly: SRB cytotoxicity assay. It is filed as cell-based. Conditions: Homo sapiens, 72 h treatment. The protocol: as §1, §2
Another series concerns Hep3B. Nature of the series: SRB cytotoxicity assay. In kind it is cell-based. Conditions: Homo sapiens, 72 h treatment. The protocol:
as §1, §2

The next series relates to Hep40. Briefly: SRB cytotoxicity assay. In kind it is cell-based. The note with it: Homo sapiens, 72 h treatment. The procedure:
as §1, §2

The next series relates to PLC-PRF-5. Briefly: SRB cytotoxicity assay. The note with it: Homo sapiens, 72 h treatment. It is filed as cell-based. The procedure: as §1, §2
A further series deals with SKBR3. Nature of the series: SRB cytotoxicity assay. The note with it: Homo sapiens, SK-BR-3, 72 h treatment. In kind it is cell-based. The procedure:
as §1, §2

In another series the test system is FOCUS. Briefly: SRB cytotoxicity assay. In kind it is cell-based. Conditions: Homo sapiens, 72 h treatment. The procedure:
as §1, §2

The next series relates to MDA-MB468. Briefly: SRB cytotoxicity assay. Conditions: Homo sapiens, MDA-MB-468, 72 h treatment. It is filed as cell-based. The procedure: as §1, §2
In another series the test system is HepG2. Nature of the series: SRB cytotoxicity assay. In kind it is cell-based. The note with it: Homo sapiens, 72 h treatment. The protocol:
as §1, §2

Another series deals with Huh7. Nature of the series: SRB cytotoxicity assay. In kind it is cell-based, human. The note with it: 72 h treatment. The method in brief: (§3)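 Cells seeded 24 h before 72 h compound exposure, 40 to 2.5 μM (or 2.5 to 0.15 μM for compounds below 2.5 μM). TCA-fixed, stained with sulforhodamine B, absorbance at 515 nm. IC50 relative to DMSO control; fits with R^2 above 0.9 accepted.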

A further series has as its system MCF7. Nature of the series: SRB cytotoxicity assay. In kind it is cell-based, human. The note with it: 72 h treatment. The method in brief: as §3
The next series has as its system Mahlavu. Briefly: SRB cytotoxicity assay. In kind it is cell-based, human. Conditions: Homo sapiens, Mahlavu, 72 h, 72 h treatment. In a few lines: as §3
The next series has as its system Mahlavu xenografts. Nature of the series: Mahlavu hepatocellular carcinoma xenograft. It is filed as in vivo. Conditions: 40 mg/kg oral; for reduction in tumor volume: Mahlavu xenografts, nude mice, twice a week, 4 weeks; for Tolerability of the administered dose: in all studies (Mahlavu and MDA-MB-231 xenografts), no significant bodyweight loss, toxic effects or mortality. The protocol: Mahlavu cells (10 × 10^6 cells/mouse) prepared in 150 μL of DMEM were injected subcutaneously to the flank of 6–8 weeks old male athymic nude mice, while MDA-MB-231 cells (2 × 10^6cells/mouse) in 1:1 DMEM and matrigel were injected into mammary fat pad (MFP) of 6–8 weeks old female athymic nude mice. Tumor volume and mouse weight were measured twice a week using calipers. When the tumor volume reached ∼150 mm^3, xenografts were randomized into groups (6 mice per group), and the mice were administered subsequently with 11 or 85 (40 mg/kg in 0.5% hydroxypropyl methylcellulose plus 1% Tween 80) or vehicle by gavage feeding (3–4 days/week) for 4 weeks. The mice were sacrificed 30 days after initiation of the compound treatment and tumors were collected. Two-way ANOVA was performed for statistical significance by GraphPad Prism. All of the mice were maintained under a temperature-controlled environment with a 12 h light/dark cycle and received a standard diet and water ad libitum.

The next series has as its system Huh7, Mahlavu and MCF7. Nature of the series: SRB cytotoxicity, summary for all three cell lines. Conditions: Homo sapiens; one value or range for Huh7, Mahlavu and MCF7 together; read-out: IC50 against all three cell lines. It is filed as cell-based. The procedure:
as §2

Turning to `Cc1ccccc1COc1ccc(-c2ccnn2-c2ccc(Cl)cc2)cc1` [compound 85, 1-(4-Chlorophenyl)-5-(4-((2-methylbenzyl)oxy)phenyl)-1H-pyrazole], the concentration for half-maximal inhibition (IC50) (as a rule, the concentration that gives 50% inhibition) was 900 nM with MDA-MB231; 1500 nM in the series on SNU475; 5500 nM in the series with ZR75; 7900 nM in the series on Hep3B; 5200 nM with Hep40; 6500 nM in the series on PLC-PRF-5. The IC50 in the series with SKBR3 is 1800 nM; with FOCUS, 2400 nM; in the series with MDA-MB468, 1000 nM; with HepG2, 1400 nM; in the series on Huh7 it was 700 nM; with Huh7 (Homo sapiens, Huh-7, 72 h) it was less than 1000 nM. The half-inhibitory concentration (IC50) in the series on MCF7 is 900 nM; with MCF7 (Homo sapiens, MCF7, 72 h), less than 1000 nM; in the series on Mahlavu, 3700 nM; in the series with Huh7, Mahlavu and MCF7, 700 to 14400 nM. Also, in the series on Mahlavu xenografts, the “reduction in tumor volume” value came to 40%. In addition, in the series with Mahlavu xenografts, the “Tolerability of the administered dose” value is “well tolerated”.
As for `Cc1ccccc1COc1ccc(-c2noc(C)c2-c2ccc(Cl)cc2)cc1` [compound 11, 4-(4-Chlorophenyl)-5-methyl-3-(4-((2-methylbenzyl)oxy)phenyl)isoxazole], the IC50 in the series with MDA-MB231 amounted to 2000 nM; in the series with SNU475, 1700 nM; in the series with ZR75, 7600 nM; in the series with Hep3B, 3000 nM; in the series with Hep40, 8600 nM; with PLC-PRF-5 it was 9500 nM. The IC50 in the series on SKBR3 was 3500 nM; in the series with FOCUS, 2100 nM; in the series on MDA-MB468, 2800 nM; with HepG2, 2100 nM; in the series on Huh7 (Homo sapiens, Huh-7, 72 h), 1300 nM; in the series with MCF7 (Homo sapiens, MCF7, 72 h), 3800 nM. This compound yielded a 50% inhibitory concentration (IC50) in the series on Mahlavu of 3200 nM. Also, the “reduction in tumor volume” value with Mahlavu xenografts amounted to 85%. Besides, the “Tolerability of the administered dose” value with Mahlavu xenografts was “well tolerated”.

The values above are taken from paper PMC9583322, “Vicinal Diaryl-Substituted Isoxazole and Pyrazole Derivatives with In Vitro Growth Inhibitory and In Vivo Antitumor Activity” (ACS Omega, 2022).
